Experiment: Stability (integrity) testing of amorphous and polymorphic form under storage conditions, RP-HPLC
Type: physicochemical
Parameters: key to Impurity RRT 0.738 / Impurity RRT 0.949 / Impurity RRT 1.050 / Impurity RRT 1.550 / Impurity RRT 0.136 / Impurity RRT 0.720 / Impurity RRT 0.706 / Impurity RRT 1.18 / Impurity RRT 1.826: % of total UV absorption (HPLC peak area); Impurity RRT 1.104 / Impurity RRT 1.698: unit not given beside the values
Settings: Batch 3 PP00205
Protocol: The integrity of the different forms of the (3R, 5R)-7-[2-(4-fluorophenyl)-5-isopropyl-3-phenyl-4-[(4-hydroxymethylphenylamino)carbonyl]-pyrrol-1-yl]-3,5-dihydroxy-heptanoic acid, hemi calcium salt, was tested under different atmospheric conditions to determine the stability of the amorphous and polymorphic form of the drug in various storage environments. Reversed Phase-HPLC (RP-HPLC) was used to separate (3R, 5R)-7-[2-(4-fluorophenyl)-5-isopropyl-3-phenyl-4-[(4-hydroxymethylphenylamino)carbonyl]-pyrrol-1-yl]-3,5-dihydroxy-heptanoic acid, hemi calcium salt, from smaller molecules representing breakdown products as well as oxidized drug. The relative amount of the drug was reported as a percent of total absorption by UV. The total peak area of all UV absorption impurities was used to define total impurity of the drug. Impurities are defined by their relative retention time (RRT) compared to native drug. Samples were injected onto a C18 column using standard temperature, gradient and run-time conditions.
The results of this integrity testing for the amorphous form of (3R, 5R)-7-[2-(4-fluorophenyl)-5-isopropyl-3-phenyl-4-[(4-hydroxymethylphenylamino)carbonyl]-pyrrol-1-yl]-3,5-dihydroxy-heptanoic acid, hemi calcium salt, is shown in Table 5.
Three separate batches of polymorphic Form I of (3R, 5R)-7-[2-(4-fluorophenyl)-5-isopropyl-3-phenyl-4-[(4-hydroxymethylphenylamino)carbonyl]-pyrrol-1-yl]-3,5-dihydroxy-heptanoic acid, hemi calcium salt, were prepared and tested under the same atmospheric conditions described for the amorphous form.

## CC(C)c1c(C(=O)Nc2ccc(CO)cc2)c(-c2ccccc2)c(-c2ccc(F)cc2)n1CC[C@@H](O)C[C@@H](O)CC(=O)[O-].CC(C)c1c(C(=O)Nc2ccc(CO)cc2)c(-c2ccccc2)c(-c2ccc(F)cc2)n1CC[C@@H](O)C[C@@H](O)CC(=O)[O-].[Ca+2] [Form I, (3R,5)-7-[2-(4-fluorophenyl)-5-isopropyl-3-phenyl-4-[(4-hydroxymethylphenylamino)carbonyl]-pyrrol-1-yl]-3,5-dihydroxy-heptanoic acid, hemi calcium salt]
5° C. 2M
  Assay: 98.21 % W/W
  Description: White
  Highest Impurity: 0.402
  Impurity RRT 0.935: 0.402
  Impurity RRT 1.045: 0.340
  Impurity RRT 1.095: 0.155
  Impurity RRT 1.44: 0.203
  Impurity RRT 1.590: 0.096
  Impurity RRT 1.640: 0.064
  Impurity RRT 1.698: 0.067
  Total Impurity: 1.33
  Water: 4.02 % W/W
5° C. 3M
  Assay: 98.20 % W/W
  Description: White
  Highest Impurity: 0.436
  Impurity RRT 0.935: 0.416
  Impurity RRT 1.045: 0.436
  Impurity RRT 1.095: 0.155
  Impurity RRT 1.44: 0.203
  Impurity RRT 1.590: 0.093
  Impurity RRT 1.640: 0.061
  Impurity RRT 1.698: 0.065
  Total Impurity: 1.43
  Water: 4.69 % W/W
5° C. 4M
  Assay: 98.22 % W/W
  Description: White
  Highest Impurity: 0.381
  Impurity RRT 0.138: 0.219
  Impurity RRT 0.935: 0.381
  Impurity RRT 1.045: 0.324
  Impurity RRT 1.095: 0.128
  Impurity RRT 1.449: 0.220
  Impurity RRT 1.596: 0.077
  Impurity RRT 1.640: 0.081
  Impurity RRT 1.698: 0.057
  Total Impurity: 1.487
  Water: 5.08 % W/W
5° C. 5M
  Assay: 98.53 % W/W
  Description: White
  Highest Impurity: 0.410
  Impurity RRT 0.138: 0.231
  Impurity RRT 0.935: 0.410
  Impurity RRT 1.045: 0.321
  Impurity RRT 1.095: 0.140
  Impurity RRT 1.449: 0.198
  Impurity RRT 1.596: 0.075
  Impurity RRT 1.640: 0.049
  Impurity RRT 1.698: 0.058
  Total Impurity: 1.482
  Water: 4.79 % W/W
5° C. 6M
  Assay: 98.15 % W/W
  Description: White
  Highest Impurity: 0.368
  Impurity RRT 0.138: 0.256
  Impurity RRT 0.935: 0.368
  Impurity RRT 1.045: 0.315
  Impurity RRT 1.095: 0.165
  Impurity RRT 1.449: 0.211
  Impurity RRT 1.596: 0.081
  Impurity RRT 1.640: 0.049
  Impurity RRT 1.698: 0.050
  Total Impurity: 1.495
  Water: 4.78 % W/W
5° C. 9M
  Assay: 98.14 % W/W
  Description: White
  Highest Impurity: 0.390
  Impurity RRT 0.138: 0.222
  Impurity RRT 0.935: 0.390
  Impurity RRT 1.045: 0.372
  Impurity RRT 1.095: 0.142
  Impurity RRT 1.449: 0.174
  Impurity RRT 1.596: 0.088
  Impurity RRT 1.640: 0.049
  Impurity RRT 1.698: 0.053
  Total Impurity: 1.490
  Water: 5.39 % W/W
5° C. 12M
  Assay: 98.31 % W/W
  Description: White
  Highest Impurity: 0.438
  Impurity RRT 0.935: 0.438
  Impurity RRT 1.045: 0.383
  Impurity RRT 1.095: 0.177
  Impurity RRT 1.449: 0.217
  Impurity RRT 1.596: 0.090
  Impurity RRT 1.640: 0.066
  Impurity RRT 1.698: 0.066
  Total Impurity: 1.437
  Water: 5.97 % W/W
5° C./1M
  Assay: 98.26 % W/W
  Description: White
  Highest Impurity: 0.421
  Impurity RRT 0.706: 0.042
  Impurity RRT 0.935: 0.421
  Impurity RRT 1.045: 0.352
  Impurity RRT 1.095: 0.165
  Impurity RRT 1.44: 0.21
  Impurity RRT 1.590: 0.100
  Impurity RRT 1.640: 0.074
  Impurity RRT 1.698: 0.071
  Total Impurity: 1.455
  Water: 4.77 % W/W
25° C./60% RH 3M
  Assay: 98.11 % W/W
  Description: White
  Highest Impurity: 0.437
  Impurity RRT 0.935: 0.437
  Impurity RRT 1.045: 0.372
  Impurity RRT 1.095: 0.164
  Impurity RRT 1.44: 0.225
  Impurity RRT 1.590: 0.094
  Impurity RRT 1.640: 0.062
  Impurity RRT 1.698: 0.065
  Total Impurity: 1.42
  Water: 4.65 % W/W
25° C./60% RH 6M
  Assay: 98.10 % W/W
  Description: White
  Highest Impurity: 0.476
  Impurity RRT 0.935: 0.476
  Impurity RRT 1.045: 0.324
  Impurity RRT 1.095: 0.191
  Impurity RRT 1.449: 0.196
  Impurity RRT 1.596: 0.071
  Impurity RRT 1.640: 0.061
  Impurity RRT 1.698: 0.061
  Total Impurity: 1.380
  Water: 4.96 % W/W
25° C./60% RH 9M
  Assay: 97.95 % W/W
  Description: White
  Highest Impurity: 0.408
  Impurity RRT 0.935: 0.408
  Impurity RRT 1.045: 0.361
  Impurity RRT 1.095: 0.187
  Impurity RRT 1.449: 0.225
  Impurity RRT 1.596: 0.096
  Impurity RRT 1.640: 0.062
  Impurity RRT 1.698: 0.055
  Impurity RRT 1.826: 0.053
  Total Impurity: 1.477
  Water: 5.36 % W/W
25° C./60% RH 12M
  Assay: 98.10 % W/W
  Description: White
  Highest Impurity: 0.399
  Impurity RRT 0.138: 0.204
  Impurity RRT 0.935: 0.399
  Impurity RRT 1.045: 0.344
  Impurity RRT 1.095: 0.165
  Impurity RRT 1.449: 0.195
  Impurity RRT 1.596: 0.086
  Impurity RRT 1.640: 0.052
  Impurity RRT 1.698: 0.061
  Total Impurity: 1.506
  Water: 5.57 % W/W
30° C./65% RH 1M
  Assay: 98.21 % W/W
  Description: White
  Highest Impurity: 0.449
  Impurity RRT 0.935: 0.449
  Impurity RRT 1.045: 0.385
  Impurity RRT 1.095: 0.162
  Impurity RRT 1.44: 0.234
  Impurity RRT 1.590: 0.102
  Impurity RRT 1.640: 0.071
  Impurity RRT 1.698: 0.072
  Total Impurity: 1.495
  Water: 4.47 % W/W
30° C./65% RH 2M
  Assay: 98.27 % W/W
  Description: White
  Highest Impurity: 0.416
  Impurity RRT 0.935: 0.416
  Impurity RRT 1.045: 0.362
  Impurity RRT 1.095: 0.163
  Impurity RRT 1.18: 0.048
  Impurity RRT 1.44: 0.216
  Impurity RRT 1.590: 0.100
  Impurity RRT 1.640: 0.063
  Impurity RRT 1.698: 0.062
  Total Impurity: 1.43
  Water: 4.59 % W/W
30° C./65% RH 3M
  Assay: 98.21 % W/W
  Description: White
  Highest Impurity: 0.432
  Impurity RRT 0.935: 0.432
  Impurity RRT 1.045: 0.37
  Impurity RRT 1.095: 0.168
  Impurity RRT 1.44: 0.228
  Impurity RRT 1.590: 0.096
  Impurity RRT 1.640: 0.057
  Impurity RRT 1.698: 0.064
  Total Impurity: 1.43
  Water: 4.82 % W/W
30° C./65% RH 6M
  Assay: 98.06 % W/W
  Description: White
  Highest Impurity: 0.418
  Impurity RRT 0.935: 0.418
  Impurity RRT 1.045: 0.352
  Impurity RRT 1.095: 0.134
  Impurity RRT 1.449: 0.224
  Impurity RRT 1.596: 0.095
  Impurity RRT 1.640: 0.077
  Impurity RRT 1.698: 0.052
  Total Impurity: 1.352
  Water: 4.87 % W/W
30° C./65% RH 9M
  Assay: 97.89 % W/W
  Description: White
  Highest Impurity: 0.407
  Impurity RRT 0.935: 0.407
  Impurity RRT 1.045: 0.340
  Impurity RRT 1.095: 0.150
  Impurity RRT 1.449: 0.216
  Impurity RRT 1.596: 0.103
  Impurity RRT 1.640: 0.064
  Impurity RRT 1.698: 0.053
  Total Impurity: 1.333
  Water: 4.91 % W/W
30° C./65% RH 12M
  Assay: 97.80 % W/W
  Description: White
  Highest Impurity: 0.424
  Impurity RRT 0.935: 0.424
  Impurity RRT 1.045: 0.363
  Impurity RRT 1.095: 0.172
  Impurity RRT 1.449: 0.197
  Impurity RRT 1.596: 0.089
  Impurity RRT 1.640: 0.064
  Impurity RRT 1.698: 0.058
  Total Impurity: 1.367
  Water: 5.33 % W/W
40° C./75% RH 1M
  Assay: 98.23 % W/W
  Description: White
  Highest Impurity: 0.452
  Impurity RRT 0.935: 0.452
  Impurity RRT 1.045: 0.372
  Impurity RRT 1.095: 0.162
  Impurity RRT 1.44: 0.215
  Impurity RRT 1.590: 0.100
  Impurity RRT 1.640: 0.071
  Impurity RRT 1.698: 0.066
  Total Impurity: 1.46
  Water: 4.33 % W/W
40° C./75% RH 2M
  Assay: 98.23 % W/W
  Description: White
  Highest Impurity: 0.422
  Impurity RRT 0.935: 0.422
  Impurity RRT 1.045: 0.351
  Impurity RRT 1.095: 0.169
  Impurity RRT 1.18: 0.052
  Impurity RRT 1.44: 0.219
  Impurity RRT 1.590: 0.090
  Impurity RRT 1.640: 0.066
  Impurity RRT 1.698: 0.065
  Total Impurity: 1.44
  Water: 4.40 % W/W
40° C./75% RH 3M
  Assay: 98.2 % W/W
  Description: White
  Highest Impurity: 0.423
  Impurity RRT 0.935: 0.423
  Impurity RRT 1.045: 0.360
  Impurity RRT 1.095: 0.174
  Impurity RRT 1.44: 0.218
  Impurity RRT 1.590: 0.102
  Impurity RRT 1.640: 0.065
  Impurity RRT 1.698: 0.064
  Total Impurity: 1.41
  Water: 4.75 % W/W
40° C./75% RH 6M
  Assay: 98.16 % W/W
  Description: White
  Highest Impurity: 0.418
  Impurity RRT 0.138: 0.107
  Impurity RRT 0.935: 0.418
  Impurity RRT 1.045: 0.347
  Impurity RRT 1.095: 0.161
  Impurity RRT 1.449: 0.187
  Impurity RRT 1.596: 0.087
  Impurity RRT 1.640: 0.050
  Impurity RRT 1.698: 0.052
  Total Impurity: 1.409
  Water: 5.44 % W/W
Initial
  Assay: 98.43 % W/W
  Description: White
  Highest Impurity: 0.428
  Impurity RRT 0.706: 0.045
  Impurity RRT 0.935: 0.428
  Impurity RRT 1.045: 0.349
  Impurity RRT 1.095: 0.159
  Impurity RRT 1.44: 0.235
  Impurity RRT 1.590: 0.093
  Impurity RRT 1.640: 0.054
  Impurity RRT 1.698: 0.084
  Total Impurity: 1.438
  Water: 4.76 % W/W

Reference: patent US20080153896A1, “Polymorphic Forms of an HMG-CoA Reductase Inhibitor and Uses Thereof” (priority 2006, published 2008)
